US20240287138A1, “CYCLIC PEPTIDES FOR INHIBITING TNF RECEPTOR 1 ACTIVITY” (Merck Sharp & Dohme LLC, priority 2023, published 2024)
Where two headings read alike, the source gives them in different places. Numbered stars: 1 amine (or outer) side, 2 acyl side, 3 side chain; on linkers, the order of the positions; unused ones are H or OH. Square brackets hold non-standard residues; d marks the D form. Peptide text beside a SMILES is read from it. Trp(βS-Me,7-OMe) = COc1cccc2c([C@H](C)[C@H](N)C(=O)O)c[nH]c12; Phe(4-SO2NH2) = N[C@@H](Cc1ccc(S(N)(=O)=O)cc1)C(=O)O; Phe(2-F,4-COOH) = N[C@@H](Cc1ccc(C(=O)O)cc1F)C(=O)O; Trp(7-CN) = N#Cc1cccc2c(C[C@H](N)C(=O)O)c[nH]c12; Ala(pyrimidin-5-yl) = N[C@@H](Cc1cncnc1)C(=O)O; Phe(4-CONH2) = NC(=O)c1ccc(C[C@H](N)C(=O)O)cc1; Phe(4-COOH) = N[C@@H](Cc1ccc(C(=O)O)cc1)C(=O)O; 4Pal(3S-Me) = C[C@@H](c1ccncc1)[C@H](N)C(=O)O; Trp(7-aza) = N[C@@H](Cc1c[nH]c2ncccc12)C(=O)O; Phe(4-CH2NH2) = NCc1ccc(C[C@H](N)C(=O)O)cc1; Pip(5R-OH) = O=C(O)[C@@H]1CC[C@@H](O)CN1; X1 = O=C([C@@H]1CC[C@H](N[*:1])C1)[*:2]; Met(O2) = CS(=O)(=O)CC[C@H](N)C(=O)O; 4Pal = N[C@@H](Cc1ccncc1)C(=O)O; dHyp = O=C(O)[C@H]1C[C@H](O)CN1; Ahp(2) = CCCCC[C@H](N)C(=O)O; hSer = N[C@@H](CCO)C(=O)O; αMeS = C[C@](N)(CO)C(=O)O; Nle = CCCC[C@H](N)C(=O)O; Sar = CNCC(=O)O

Tests used:
[1] = target: T1, human TNFR1 extracellular domain (ECD) protein (Homo sapiens, UniProt P19438); test: SPR binding affinity to captured human TNFR1 ECD
T1 construct: HRV 3C protease cleavage site (C); 6His (C, cleaved yes); made in house; host or cells: Sf21 insect cells (baculovirus), secreted
T1 sequence (P19438 30-211): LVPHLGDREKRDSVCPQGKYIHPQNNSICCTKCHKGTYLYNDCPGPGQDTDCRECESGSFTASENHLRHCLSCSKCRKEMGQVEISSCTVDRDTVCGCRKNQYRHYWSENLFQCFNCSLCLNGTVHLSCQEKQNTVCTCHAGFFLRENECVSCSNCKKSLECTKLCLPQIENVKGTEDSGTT
In short: (§1)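 Biotinylated human TNFR1 or TNFR2 ECD (C-terminal Avi-tag, Sf21-expressed) captured on a regenerable streptavidin chip; peptide analytes flowed in 10 mM HEPES pH 7.4, 150 mM NaCl, 3 mM EDTA, 0.05% P20, 2% DMSO. kon and koff measured; affinity calculated from the rate constants.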

human TNFR2 ECD protein = target: T2, human TNFR2 ECD protein (Homo sapiens, UniProt P20333); test: SPR off-target binding (selectivity) to human TNFR2 ECD
T2 construct: HRV 3C protease cleavage site (C); 6His (C, cleaved yes); made in house; host or cells: Sf21 insect cells (baculovirus), secreted
T2 sequence (P20333 23-257): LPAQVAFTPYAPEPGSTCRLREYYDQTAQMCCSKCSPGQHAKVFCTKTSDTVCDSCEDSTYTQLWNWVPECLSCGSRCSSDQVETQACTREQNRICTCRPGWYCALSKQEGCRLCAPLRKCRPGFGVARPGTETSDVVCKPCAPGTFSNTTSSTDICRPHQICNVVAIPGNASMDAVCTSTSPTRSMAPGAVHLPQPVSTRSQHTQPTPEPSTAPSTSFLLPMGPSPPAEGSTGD
In short: as §1

[2] = target: T3, TNFα-induced NF-κB signal transduction pathway (TNFR1 signaling) in THP-1 cells (Homo sapiens, UniProt P19438); test: THP-1 Lucia NF-κB reporter cell assay, inhibition of TNFα-induced NF-κB signaling; assay type: cell-based; settings: THP-1 NF-κB Lucia reporter cells, 10 ng/mL TNFα, 16-18 h, secreted luciferase; read-out: THP-1 IC50
T3 sequence (P19438 30-455): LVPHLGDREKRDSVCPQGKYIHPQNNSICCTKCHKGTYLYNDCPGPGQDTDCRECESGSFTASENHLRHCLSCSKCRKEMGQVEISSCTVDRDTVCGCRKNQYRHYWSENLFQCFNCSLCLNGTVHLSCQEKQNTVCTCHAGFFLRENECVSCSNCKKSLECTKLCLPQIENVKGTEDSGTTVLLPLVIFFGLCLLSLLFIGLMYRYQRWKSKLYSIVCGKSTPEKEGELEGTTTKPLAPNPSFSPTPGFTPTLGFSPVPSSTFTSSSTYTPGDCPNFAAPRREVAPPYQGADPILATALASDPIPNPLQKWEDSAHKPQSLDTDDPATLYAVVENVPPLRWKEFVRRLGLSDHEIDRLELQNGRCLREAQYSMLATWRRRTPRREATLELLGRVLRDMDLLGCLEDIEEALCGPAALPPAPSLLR
In short: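 Inhibition of TNFR1-driven NF-κB activation was measured as luminescence of secreted reporter luciferase following overnight (16-18 h) stimulation with 10 ng/mL TNFα.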

[3] = biotinylated human TNFR1 ECD on streptavidin chip, from kon and koff, read-out: SPR hTNFR1 KD
[4] = biotinylated human TNFR2 ECD on streptavidin chip, read-out: SPR hTNFR2 KD

| Structure (SMILES) | Kd [1, 3] | Kd (human TNFR2 ECD protein; [4]) | IC50 [2] | Kd [1] | Kd (human TNFR2 ECD protein) |
| --- | --- | --- | --- | --- | --- |
| CCCC[C@@H]1NC(=O)[C@@H]2CC[C@@H](C2)NC(=O)[C@H]([C@@H](C)c2c[nH]c3c(OC)cccc23)NC(=O)CN(C)C(=O)[C@H](Cc2ccc(CN)cc2)NC(=O)[C@H](Cc2ccc(C(N)=O)cc2)NC(=O)[C@](C)(CO)NC(=O)[C@H](Cc2c[nH]c3c(C#N)cccc23)NC(=O)[C@H](Cc2ccc(C(=O)O)cc2)NC(=O)[C@H](CC(N)=O)NC(=O)[C@H]2C[C@H](O)CN2C(=O)[C@H](Cc2c[nH]c3ccccc23)NC(=O)[C@@H]2CC[C@@H](O)CN2C(=O)[C@H](Cc2ccncc2)NC1=O [SEQ ID NO. 48] (cyclo([4Pal][Pip(5R-OH)]W[dHyp]N[Phe(4-COOH)][Trp(7-CN)][αMeS][Phe(4-CONH2)][Phe(4-CH2NH2)][Sar][Trp(βS-Me,7-OMe)][X1][Nle])) | 0.03 nM | > 1000 nM | 0.7 nM | – | – |
| CCCCC[C@@H]1NC(=O)[C@@H]2CC[C@@H](C2)NC(=O)[C@H]([C@@H](C)c2c[nH]c3c(OC)cccc23)NC(=O)CN(C)C(=O)[C@H](Cc2ccc(C(N)=O)cc2)NC(=O)[C@H](Cc2ccc(C(N)=O)cc2)NC(=O)[C@](C)(CO)NC(=O)[C@H](Cc2c[nH]c3c(C#N)cccc23)NC(=O)[C@H](Cc2ccc(C(=O)O)cc2)NC(=O)[C@H](CC(N)=O)NC(=O)[C@H]2C[C@H](O)CN2C(=O)[C@H](Cc2c[nH]c3ccccc23)NC(=O)[C@H](CCS(C)(=O)=O)NC(=O)[C@H]([C@@H](C)c2ccncc2)NC1=O [SEQ ID NO. 49] (cyclo([Ahp(2)][4Pal(3S-Me)][Met(O2)]W[dHyp]N[Phe(4-COOH)][Trp(7-CN)][αMeS][Phe(4-CONH2)][Phe(4-CONH2)][Sar][Trp(βS-Me,7-OMe)][X1])) | – | – | 0.7 nM | 0.08 nM | > 1000 nM |
| CCCCC[C@@H]1NC(=O)[C@@H]2CC[C@@H](C2)NC(=O)[C@H]([C@@H](C)c2c[nH]c3c(OC)cccc23)NC(=O)CN(C)C(=O)[C@H](Cc2ccc(C(N)=O)cc2)NC(=O)[C@H](Cc2ccc(C(N)=O)cc2)NC(=O)[C@](C)(CO)NC(=O)[C@H](Cc2c[nH]c3c(C#N)cccc23)NC(=O)[C@H](Cc2ccc(C(=O)O)cc2)NC(=O)[C@H](CC(N)=O)NC(=O)[C@H]2C[C@H](O)CN2C(=O)[C@H](Cc2c[nH]c3ccccc23)NC(=O)[C@H](CCO)NC(=O)[C@H]([C@@H](C)c2ccncc2)NC1=O [SEQ ID NO. 50] (cyclo([Ahp(2)][4Pal(3S-Me)][hSer]W[dHyp]N[Phe(4-COOH)][Trp(7-CN)][αMeS][Phe(4-CONH2)][Phe(4-CONH2)][Sar][Trp(βS-Me,7-OMe)][X1])) | – | – | 0.9 nM | 0.04 nM | > 1000 nM |
| CCCC[C@@H]1NC(=O)[C@@H]2CC[C@@H](C2)NC(=O)[C@H]([C@@H](C)c2c[nH]c3c(OC)cccc23)NC(=O)CN(C)C(=O)[C@H](Cc2ccc(C(=O)O)cc2F)NC(=O)[C@H](Cc2ccc(S(N)(=O)=O)cc2)NC(=O)[C@](C)(CO)NC(=O)[C@H](Cc2c[nH]c3c(C#N)cccc23)NC(=O)[C@H](Cc2ccc(C(=O)O)cc2F)NC(=O)[C@H](CC(N)=O)NC(=O)[C@H]2C[C@H](O)CN2C(=O)[C@H](Cc2c[nH]c3ncccc23)NC(=O)[C@@H]2CC[C@@H](O)CN2C(=O)[C@H](Cc2cncnc2)NC1=O [SEQ ID NO. 51] (cyclo(N[Phe(2-F,4-COOH)][Trp(7-CN)][αMeS][Phe(4-SO2NH2)][Phe(2-F,4-COOH)][Sar][Trp(βS-Me,7-OMe)][X1][Nle][Ala(pyrimidin-5-yl)][Pip(5R-OH)][Trp(7-aza)][dHyp])) | 0.08 nM | > 1000 nM | 0.4 nM | – | – |
